One assay addresses T1, Cathepsin D (Cat D) (Homo sapiens, UniProt P07339).
T1 construct: Recombinant Cat D was expressed in CHO cells; made in house; host or cells: CHO cells
Kind of assay: In vitro enzymatic Cathepsin D (Cat D) FRET assay. The format is biochemical. Conditions: read-out: CatD IC50. The procedure:
In Vitro Enzymatic Cathepsin D (Cat D) FRET (Fluorescence Resonance Energy Transfer) Assay Recombinant Cat D was expressed in CHO cells. […] The Cat D enzyme (9 nM) is pre-incubated for one hour with inhibitors, typically in about 1 uL of DMSO according to a serial dilution, is added thereto. […] The FRET assay is terminated with by addition of Tris buffer, which raises the pH to neutrality, and the fluorescence is determined. The FRET substrate is a peptide with commercially available fluorophore and quencher, on opposite sides of the BACE cleavage site. The Cat D substrate peptide sequence is based on sequence #1 of Table 1 from Gulnik et al. […] Alternatively, a Cat D assay may also be run according to the procedure described in the article, Characterization of new fluorgenic substrates for the rapid and sensitive assay of cathepsin E and cathepsin D, J. Biochem., 125:1137, 1999. In addition, the cathepsin D and cathepsin E assays are described in PCT publication WO2011069934. This WIPO publication describes BACE inhibitor compounds having an amide linker connecting two aromatic groups with extremely poor cathepsin D and/or cathepsin E inhibitory activity (see Table 2). Where available, the in-vitro Cat D FRET assay data for each of the Examples, conducted by the first procedure, is provided.

Assay [1] deals with Aβ40 in conditioned medium of cells stably expressing Amyloid Precursor Protein (APP). Kind of assay: In vitro BACE cell-based assay (HEK cell assay), Aβ40 sandwich ELISA. Conditions: Homo sapiens, HEK293; Aβ40, 24 h incubation. The procedure:
In Vitro BACE Cell-Based Assay
The cell-based assay measures inhibition or reduction of Aβ40 in conditioned medium of test compound treated cells expressing amyloid precursor protein.
Cells stably expressing Amyloid Precursor Protein (APP) were plated at a density of 40K cells/well in 96 well plates (Costar). The cells were cultivated for 24 hours at 37C. and 5% CO2 in DMEM supplemented with 10% FBS. The test compounds were then added to cells in 10-point dose response concentrations with the starting concentration being either 100 μM or 10 μM. The compounds were diluted from stock solutions in DMSO and the final DMSO concentration of the test compounds on cells was 0.1%. After 24 h of incubation with the test compounds the supernatant conditioned media was collected and the Aβ 40 levels were determined using a sandwich ELISA. The IC50 of the compound was calculated from the percent of control or percent inhibition of Aβ 40 as a function of the concentration of the test compound.
The sandwich ELISA to detect Aβ 40 was performed in 96 well microtiter plates, which were pre-treated with goat anti-rabbit IgG (Pierce). The capture and detecting antibody pair that were used to detect Aβ 40 from cell supernatants were affinity purified pAb40 (Biosource) and biotinylated 6E10 (Signet Labs Inc.), respectively. The optimal concentration for the pAb40 antibody was 3 μg/ml in Superblock/TBS (Pierce) that was supplemented with 0.05% Tween 20 (Sigma). Optimal concentration for the detection antibody 6E10-biotinylated was 0.5 μg/ml in Superblock/TBS (Pierce) that had been supplemented with 2% normal goat serum and 2% normal mouse serum.
Cellular supernatants were incubated with the capture antibody for 3 h at 4° C., followed by 3 wash steps in TBS-tween (0.05%). The detecting antibody incubation was for 2 h at 4° C., again followed by the wash steps as described previously. The final readout of the ELISA is Time-Resolved Fluorescence (counts per minute) using Delfia reagents Streptavidin-Europium and Enhancement solutions (Perkin Elmer) and the Victor 2 multilabel counter (Perkin Elmer).

Assay [2] concerns the target Beta Secretase enzyme (BACE1) (Homo sapiens, UniProt P56817). Kind of assay: In vitro enzymatic BACE FRET assay. The format is biochemical. Conditions: read-out: BACE1 FRET assay IC50. Here is the method:
In Vitro Enzymatic BACE FRET (Fluorescence Resonance Energy Transfer) Assay (Enzyme Assay Data in the Example Tables I and II)
The assay buffer used in this screen is 0.05 M acetate, pH 4.2, 10% DMSO final, 100 uM genapol (which is a nonionic detergent, below its Critical Micelle Concentration). […] This assay is effectively started by the addition of FRET substrate (50 nM) and the combination is incubated for one hour. The FRET assay is terminated with by addition of Tris buffer, which raises the pH to neutrality, and the fluorescence is determined. The FRET substrate is a peptide with commercially available fluorophore and quencher, on opposite sides of the BACE cleavage site. Proteolytic cleavage of the FRET substrate releases quenching of fluorescence (excitation […] and […]).

T1 sequence (P07339 65-412, species assumed): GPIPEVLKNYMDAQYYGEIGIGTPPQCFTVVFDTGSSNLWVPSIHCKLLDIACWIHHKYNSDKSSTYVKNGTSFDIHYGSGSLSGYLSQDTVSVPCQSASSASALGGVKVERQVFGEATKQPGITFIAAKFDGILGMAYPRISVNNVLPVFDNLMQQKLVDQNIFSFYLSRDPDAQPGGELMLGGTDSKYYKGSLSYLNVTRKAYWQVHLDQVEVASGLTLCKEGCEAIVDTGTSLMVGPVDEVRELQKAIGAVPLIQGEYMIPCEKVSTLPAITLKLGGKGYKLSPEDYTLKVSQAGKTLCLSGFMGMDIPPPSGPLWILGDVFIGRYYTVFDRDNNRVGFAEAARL
Beta Secretase enzyme (BACE1), sequence (P56817 46-501): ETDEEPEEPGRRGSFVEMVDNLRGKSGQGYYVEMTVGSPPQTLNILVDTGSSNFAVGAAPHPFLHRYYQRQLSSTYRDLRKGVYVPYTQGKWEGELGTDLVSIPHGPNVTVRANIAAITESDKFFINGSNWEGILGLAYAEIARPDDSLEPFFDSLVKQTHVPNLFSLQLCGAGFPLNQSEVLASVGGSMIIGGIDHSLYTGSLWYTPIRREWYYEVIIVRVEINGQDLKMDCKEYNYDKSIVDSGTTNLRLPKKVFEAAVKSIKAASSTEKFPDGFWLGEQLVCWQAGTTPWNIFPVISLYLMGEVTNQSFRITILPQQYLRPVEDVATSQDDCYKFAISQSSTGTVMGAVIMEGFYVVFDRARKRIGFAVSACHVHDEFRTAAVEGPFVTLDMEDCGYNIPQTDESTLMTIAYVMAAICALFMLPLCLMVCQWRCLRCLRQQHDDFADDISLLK

Consider `Cc1nc(C(=O)Nc2ccc(F)c([C@]3(C)CS(=O)(=O)C(C)(C)C(N)=N3)c2)cs1` [Example 27, N-(3-((3R)-5-amino-3,6,6-trimethyl-1,1-dioxido-3,6-dihydro-2H-1,4-thiazin-3-yl)-4-fluorophenyl)-2-methyl-1,3-thiazole-4-carboxamide], for which the values for the IC50 (at Cathepsin D (Cat D); in assay [1]; in assay [2]) were > 400000 nM, 60.9 nM and 51 nM, respectively.

Turning to `COc1cnc(C(=O)Nc2ccc(F)c([C@]3(C)CS(=O)(=O)CC(N)=N3)c2)cn1` [Example 28, N-(3-((3R)-5-amino-3-methyl-1,1-dioxido-3,6-dihydro-2H-1,4-thiazin-3-yl)-4-fluorophenyl)-5-methoxy-2-pyrazinecarboxamide], the IC50 at Cathepsin D (Cat D) worked out at 50900 nM; in assay [1], 68 nM; in assay [2], 14.9 nM.

With `C[C@@]1(c2cc(NC(=O)c3ccc(Cl)cn3)ccc2F)CS(=O)(=O)CC(N)=N1` [Example 29, N-(3-((3R)-5-amino-3-methyl-1,1-dioxido-3,6-dihydro-2H-1,4-thiazin-3-yl)-4-fluorophenyl)-5-chloro-2-pyridinecarboxamide], the results for the concentration for half-maximal inhibition (IC50) (at Cathepsin D (Cat D); in assay [1]; in assay [2]) were 118000 nM, 10.8 nM and 6 nM, respectively.

For `COc1cnc(C(=O)Nc2ccc(F)c([C@]3(C)CS(=O)(=O)[C@@](C)(F)C(N)=N3)c2)cn1` [Example 30, N-(3-((3R,6R)-5-amino-6-fluoro-3,6-dimethyl-1,1-dioxido-3,6-dihydro-2H-1,4-thiazin-3-yl)-4-fluorophenyl)-5-methoxy-2-pyrazinecarboxamide], the values for the IC50 (at Cathepsin D (Cat D); in assay [1]; in assay [2]) were > 400000 nM, 80.1 nM and 3.1 nM, respectively.

As for `COc1cnc(C(=O)Nc2ccc(F)c(C3(CF)CS(=O)(=O)C(C)(C)C(N)=N3)c2)cn1` (stereo not drawn) [Example 31, N-(3-(-5-amino-3-(fluoromethyl)-6,6-dimethyl-1,1-dioxido-3,6-dihydro-2H-1,4-thiazin-3-yl)-4-fluorophenyl)-5-methoxy-2-pyrazinecarboxamide], the IC50 is > 400000 nM on Cathepsin D (Cat D), 27.9 nM in assay [1] and 3.8 nM in assay [2].

Take `COc1cnc(C(=O)Nc2ccc(F)c(C3(C(F)F)CS(=O)(=O)C(C)(C)C(N)=N3)c2)cn1` (stereo not drawn) [Example 32, N-(3-(-5-amino-3-(difluoromethyl)-6,6-dimethyl-1,1-dioxido-3,6-dihydro-2H-1,4-thiazin-3-yl)-4-fluorophenyl)-5-methoxy-2-pyrazinecarboxamide]: the IC50 on Cathepsin D (Cat D) was > 400000 nM; in assay [1], 1420 nM; in assay [2] it was 53.1 nM.

For `CC1(c2cc(NC(=O)c3ccc(Cl)cn3)cc(F)c2F)CS(=O)(=O)C(C)(C)C(N)=N1` (stereo not drawn) [Example 35, N-(3-(-5-amino-3,6,6-trimethyl-1,1-dioxido-3,6-dihydro-2H-1,4-thiazin-3-yl)-4,5-difluorophenyl)-5-chloro-2-pyridinecarboxamide], the figures for the half-inhibitory concentration (IC50) (at Cathepsin D (Cat D); in assay [1]; in assay [2]) were 99800 nM, 12.2 nM and 2.7 nM, respectively.

`COc1cnc(C(=O)Nc2ccc(F)c([C@]3(C(F)F)CS(=O)(=O)C(C)(C)C(N)=N3)c2)cn1` [Example 36, (S)—N-(3-(5-amino-3-(difluoromethyl)-6,6-dimethyl-1,1-dioxido-3,6-dihydro-2H-1,4-thiazin-3-yl)-4-fluorophenyl)-5-methoxypyrazine-2-carboxamide]: the IC50 on Cathepsin D (Cat D) is > 400000 nM; in assay [1], 765 nM; in assay [2], 20.2 nM.

As for `CC1(C)C(N)=N[C@](C)(c2cc(NC(=O)c3ccc(Cl)cn3)cc(F)c2F)CS1(=O)=O` [Example 38, (R)—N-(3-(5-amino-3,6,6-trimethyl-1,1-dioxido-3,6-dihydro-2H-1,4-thiazin-3-yl)-4,5-difluorophenyl)-5-chloropicolinamide], the IC50 worked out at 72800 nM at Cathepsin D (Cat D), 6.5 nM in assay [1] and 1 nM in assay [2].

On to `CC1(C)C(N)=N[C@@](C)(c2cc(NC(=O)c3ccc(Cl)cn3)cc(F)c2F)CS1(=O)=O` [Example 39, (S)—N-(3-(5-amino-3,6,6-trimethyl-1,1-dioxido-3,6-dihydro-2H-1,4-thiazin-3-yl)-4,5-difluorophenyl)-5-chloropicolinamide], for which the values for the IC50 (on Cathepsin D (Cat D); in assay [1]; in assay [2]) were 225000 nM, 3270 nM and 1180 nM, respectively.

Turning to `COc1cnc(C(=O)Nc2ccc(F)c([C@]3(C)CS(=O)(=O)C(C)(C)C(N)=N3)n2)cn1` [Example 40, (R)—N-(6-(5-amino-3,6,6-trimethyl-1,1-dioxido-3,6-dihydro-2H-1,4-thiazin-3-yl)-5-fluoropyridin-2-yl)-5-methoxypyrazine-2-carboxamide], the IC50 on Cathepsin D (Cat D) is > 400000 nM; in assay [1], 6980 nM; in assay [2], 8200 nM.

As to `COc1cnc(C(=O)Nc2cc(C3(C)CS(=O)(=O)C(C)(C)C(N)=N3)c(F)cn2)cn1` (stereo not drawn) [Example 41, N-(4-(5-amino-3,6,6-trimethyl-1,1-dioxido-3,6-dihydro-2H-1,4-thiazin-3-yl)-5-fluoropyridin-2-yl)-5-methoxypyrazine-2-carboxamide], the 50% inhibitory concentration (IC50) came to 333000 nM on Cathepsin D (Cat D), 935 nM in assay [1] and 252 nM in assay [2].

As to `COc1cnc2c(Nc3ccc(F)c([C@@]4(C)N=C(N)C(C)(C)S(=O)(=O)[C@@H]4F)c3)nccc2c1` [Example 44, (2S,3R)-5-Amino-2-fluoro-3-(2-fluoro-5-((3-methoxy-1,7-naphthyridin-8-yl)amino)phenyl)-3,6,6-trimethyl-3,6-dihydro-2H-1,4-thiazine 1,1-dioxide], the values for the half-inhibitory concentration (IC50) (at Cathepsin D (Cat D); in assay [1]; in assay [2]) were 357000 nM, 60.4 nM and 9.9 nM, respectively.

For `CC1(C)C(N)=N[C@](C)(c2cc(Nc3nccc4cc(Cl)cnc34)ccc2F)CS1(=O)=O` [Example 45, N-(3-((3R)-5-amino-3,6,6-trimethyl-1,1-dioxido-3,6-dihydro-2H-1,4-thiazin-3-yl)-4-fluorophenyl)-3-chloro-1,7-naphthyridin-8-amine], the figures for the half-maximal inhibitory concentration (IC50) (at Cathepsin D (Cat D); in assay [1]; in assay [2]) were 90400 nM, 7.5 nM and 0.59 nM, respectively.

For the molecule `COc1cnc2c(Nc3ccc(F)c([C@]4(C)CS(=O)(=O)C(C)(C)C(N)=N4)c3)nccc2c1` [Example 46, N-(3-((3R)-5-amino-3,6,6-trimethyl-1,1-dioxido-3,6-dihydro-2H-1,4-thiazin-3-yl)-4-fluorophenyl)-3-methoxy-1,7-naphthyridin-8-amine], the IC50 on Cathepsin D (Cat D) came to 397000 nM; in assay [1] it was 4 nM; in assay [2] it was 5.4 nM.

Consider `COc1cnc2c(Nc3ccc(F)c([C@]4(C)CS(=O)(=O)C(C)(C)C(N)=N4)c3)nccc2n1` [Example 47, N-(3-((3R)-5-amino-3,6,6-trimethyl-1,1-dioxido-3,6-dihydro-2H-1,4-thiazin-3-yl)-4-fluorophenyl)-2-methoxypyrido[3,4-b]pyrazin-5-amine], for which the IC50 was > 400000 nM at Cathepsin D (Cat D), 5.6 nM in assay [1] and 2.9 nM in assay [2].

These data come from patent publication US20140107109A1, “AMINO-DIHYDROTHIAZINE AND AMINO-DIOXIDO DIHYDROTHIAZINE COMPOUNDS AS BETA-SECRETASE ANTAGONISTS AND METHODS OF USE” (Amgen Inc., priority 2012, published 2014).
